“Also recorded” adds a separate entry of the source.
Experiments:
[1] = system: L. dispar PBP 1; assay: Pheromone-binding protein (PBP) ligand binding assay, PBP1; set-up: species or system Lymantria dispar; conditions: tested as single compound; means ± S.E., 4 replicates
Description: (§1) A. The protein and ligand are incubated in buffer overnight. B. For half of the incubation mixture, the free ligand (L) is separated from the protein-bound ligand (P.L) by size-exclusion chromatography on P2 Gel (BioRad, exclusion limit 2000 Da). The protein elutes from the small column bed, with its ligand bound (see Examples and […] et al. 2000; Staddon and Everton 1980), while the free ligand is retained on the column ([…] et al. 2000). C. […] The extract from the filtrate (B) contains the protein-bound ligand and the extract from the incubation mixture (A) contains all the ligand (bound and free) present in the aqueous phase. The extracts are analyzed by GC-MS, to obtain values for total ligand in solution (L+P.L) and for protein-bound ligand (P.L). These can then be used to calculate % bound (Table 3). These assays were performed as described in FIG. 3 and as follows: L. dispar PBP 1 or PBP 2 was incubated with the test compound or mini-library. The PBP and the ligand(s) (L) were left to equilibrate (eq 2) overnight. The non-bound ligand was then separated from the protein-bound material (PBP.L) by size-exclusion chromatography. By determining the total ligand in solution at equilibrium (eq. 3) and the protein-bound ligand, it is possible to estimate the percentage of ligand bound to the protein at equilibrium (eq. 4). […] This binding assay has been validated extensively in previous studies ([…] et al. 2000). The components of each mini-library separated cleanly by GC, so it was possible to monitor binding of individual components. PBP+L⇄PBP·L (eq. 2) [L]tot=[L]+[PBP·L] (eq. 3) % bound=100×[PBP·L]/[L]tot (eq. 4) Results: The members of each mini-library separated cleanly by GC, therefore it was possible to monitor binding of individual members to PBP1 or PBP2, the two known PBPs in the gypsy moth, by extraction from the aqueous incubation mixture, followed by GC analysis of the extract (FIG. 3).

[2] = system: L. dispar PBP 2; assay: Pheromone-binding protein (PBP) ligand binding assay, PBP2; set-up: species or system Lymantria dispar; conditions: tested as single compound; means ± S.E., 4 replicates
Description: as §1

[3] = system: male gypsy moth antenna response to pheromone (+)-1; assay: Decay of the long-term inhibitory effect and dose responses, EAG (Example 6); set-up: species or system Lymantria dispar; conditions: 100 ng; maximal value, on average
Description: LTI dependence on the delay time of the pure (+)-1 puffs (v-vii, Example 6) after the mixed (+)-1/inhibitor puff. The amount of (+)-1 was varied from 10 ng to 1 μg and the amount of inhibitor was constant at 100 μg. FIG. 7B. Dose response of LTI with respect to variable (+)-1 responses and time responses for the strongest long-term inhibition of EAG responses towards (+)-1. FIG. 7C. Dose response of pure pheromone (+)-1. FIG. 7D.
This recovery usually took 5-7 s. The short-term inhibition STI(compound, dose) was calculated for each mixed plume. The long-term inhibition LTI(dose, time) was calculated for each dose and for each of the three puffs following the mixed pheromone-inhibitor plume.

[4] = system: third instar gypsy moth larvae; assay: Feeding deterrence, oak leaf disc choice test (Example 13); assay type: in vivo, Lymantria dispar
Description: Gypsy moth larvae were tested at the Canadian Forest Service, for feeding deterrence. A selected set of compounds, based on the results with the electroantennogram testing and also based on feeding deterrence assay results with the cabbage looper, T. ni. The experiment was done with third instar larvae and oak leaf discs. Larvae were left to choose between a treated and a control disc for 17.5 hours. Measurements of leaf areas were used to calculate the amount of leaf consumed from control (C) and treated (T) leaves. Feeding deterrence was calculated using the following formula: ((C−T)/(C+T))*100, and expressed in percent, where C=area of control leaf consumed and T=area of treated leaf consumed.

[5] = system: male gypsy moth antenna response to pheromone (+)-1; assay: EAG short-term (STI) and long-term (LTI) inhibition of pheromone signaling (Example 5); set-up: species or system Lymantria dispar; conditions: for Activity (%): long-term inhibition (LTI): pure (+)-1 100 ng plume following mixed plume with 100 μg compound
Method in brief: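 Excised male gypsy moth antenna in saline pH 6.8 under purified air (300 mL/min); 0.3 s puffs: air, (+)-1 100 ng, (+)-1 plus compound 1, 10, 100 μg per cartridge, then (+)-1 alone. STI: mixed-puff air-corrected depolarization loss versus first pheromone puff; LTI: final pheromone-puff loss.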

[6] = system: gypsy moths; assay: Field test of trap catches, Northern Japan 2009 (Example 12); assay type: in vivo, Lymantria dispar; conditions: (+)-dis 40 μg/lure & compound 40 mg/lure, vs (+)-dis alone
Description: Ten traps were used per treatment. The solvent used to deliver the compounds onto the lures was doubly distilled hexane. The hexane was evaporated prior to packing and shipping the lures. The field test was conducted in 10 replicates in Northern Japan. The test was conducted Aug. 16-18, 2009, in an area where gypsy moths are known to live. […] Traps were arranged randomized, placed on platforms. The experiment was conducted blind. The lures contained 40 μg disparlure/lure, a low dose for a field trial (typically 100 μg-1 mg are used). For each treatment, 10 traps were deployed.

[7] = system: male gypsy moth antennae response to pheromone (+)-1 with plant odors; assay: Effect on mixed pheromone/plant odorant stimulus, EAG (Example 8, second objective); set-up: species or system Lymantria dispar
Description: A second objective for this experiment was to determine whether the oak volatiles, methyl eugenol and 1-hexanol, can enhance the antennal response to (+)-1 and whether the mixed pheromone/plant odorant stimulus can be inhibited by compound 3c{2,3} or DEET. The puff order was: i) air, ii) pure (+)-1 (100 ng), iii) (+)-1 (100 ng) and plant odorant (1 μg for methyl eugenol and 100 μg for 1-hexanol), iv) (+)-1 and plant odorant as in iii+antagonist (100 μg), v) same as in iii. Depolarizations were corrected for the air response as in Eq. 1 and the short-term effects were calculated for puff iii relative to puff ii, and for puff iv relative to puff ii. Long-term effects were calculated for puff v relative to puff iii (for LTI of the mixed pheromone/plant odorant plume) and for puff v relative to puff ii (to determine whether long-term effects of the plant odorant and of the antagonist cancel).

[8] = system: male gypsy moth antenna response to odorants other than (+)-1; assay: Long-term inhibition of responses to other pheromone and host plant odorants, EAG (Example 8, first objective); set-up: species or system Lymantria dispar; conditions: for long-term activity (%) / short-term activity (%): antagonist 100 μg
Description: To determine whether the long-term inhibitory effects of 3c{2,3} and DEET are specific to (+)-1 or also apply to other odorants, compound 3c{2,3} and DEET were tested further with other odorants: (−)-1, racemic 1, dispar alkene, methyl eugenol and 1-hexanol.
These included (−)-1, racemic 1, dispar alkene (the alkene corresponding to the carbon framework of 1), methyl eugenol (a characteristic oak wood odorant) and 1-hexanol (a green leaf volatile, shown previously to be detected by gypsy moth antennae). For the pure odorant puffs, (−)-1 and racemic 1 were administered at 100 ng/cartridge, the alkene, methyl eugenol was administered at 1 μg/cartridge and 1-hexanol was administered at 100 μg/cartridge. The antagonists were both administered at 100 μg/cartridge, mixed with the appropriate dose of the odorant. The puff order was: i) air, ii) pure odorant, iii) odorant+antagonist, iv) pure odorant. All puffs were corrected for the air response as in Eq. 1. STI values were obtained from the depolarization […]. LTI values were obtained by comparing the depolarization of puff iv relative to that of puff ii.

[9] = system: male gypsy moth antenna; assay: Coupled gas chromatographic-electroantennographic detection (GC-EAD); set-up: species or system Lymantria dispar; conditions: EAD peak size and shape (sharp/broad)
Method in brief: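 GC column effluent split between flame ionization detector and an excised male moth antenna held between saline-filled glass capillary electrodes, tip removed, in a warm air stream. Antennal potentials assigned to compounds by matching retention times with FID peaks.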

[10] = third instar larvae, oak leaf discs, choice between treated and control disc for 17.5 hours, ((C−T)/(C+T))*100
[11] = mixed plume (+)-1 100 ng + compound 1 μg, negative = enhancement, mean ± S.E.
[12] = mixed plume (+)-1 100 ng + compound 10 μg, negative = enhancement, mean ± S.E.
[13] = mixed plume (+)-1 100 ng + compound 100 μg (puff v), negative = enhancement, mean ± S.E.
[14] = plant synergist 1-hexanol 100 μg
[15] = plant synergist methyl eugenol 1 μg
[16] = odorant racemic disparlure 100 ng

## CCCCCCCCCC[C@@H]1O[C@@H]1CCCCC(C)C (relative stereo) [(+)-disparlure, cis-(7R,8S)-7,8-epoxy-2-methyloctadecane, reference compound]
[1]
  PBP1 (% bound): 54 ± 16%
[2]
  PBP2 (% bound): 71 ± 23%
[3]
  depolarization with pure pheromone: 20 mV

## CCN(CC)C(=O)c1cccc(C)c1 [DEET, reference compound]
[4]; [10]
  Feeding Deterrence (%): 47.76%
[5]
  long-term inhibition (LTI) activity (in words): strongest long-term inhibitors; also recorded: strong LTI activity
[5]; [11]
  Activity (%): short-term inhibition (STI): −165 ± 51 (5) %
[5]; [12]
  Activity (%): short-term inhibition (STI): −214 ± 48 (5) %
[5]; [13]
  Activity (%): short-term inhibition (STI): −203±42%
[5]; mixed puff with highest dose (puff v)
  inhibition of the recovery phase (RI, R^1 activity): 9±9%
[5]; mean ± S.E.
  Activity (%): long-term inhibition (LTI): 78 ± 6 (5) %
[6]
  trap catches in the field: enhanced the trap catches significantly
[7]; (+)-1 100 ng + 1-hexanol 100 μg + antagonist 100 μg
  short-term effect with plant synergist + antagonist: −339 ± 206 (5)
[7]; (+)-1 100 ng + methyl eugenol 1 μg + antagonist 100 μg
  short-term effect with plant synergist + antagonist: −210 ± 120 (5)
[7]; [14]
  long-term effect on (+)-1 response: −53 ± 48 (5)
  long-term effect on the mixed (+)-1/plant odor plumes: −24 ± 19 (5)
[7]; [15]
  long-term effect on (+)-1 response: 27 ± 29 (5)
  long-term effect on the mixed (+)-1/plant odor plumes: 30 ± 27 (5)
[8]; odorant 1-hexanol 100 μg
  long-term activity (%): 7 ± 18%
  short-term activity (%): 6 ± 30%
[8]; odorant (−)-disparlure 100 ng
  long-term activity (%): −10 ± 29%
[8]; odorant (−)-disparlure 100 ng, negative = enhancement
  short-term activity (%): −322 ± 66%
[8]; odorant dispar alkene 1 μg
  long-term activity (%): 52 ± 22%
[8]; odorant methyl eugenol 1 μg
  long-term activity (%): 8 ± 8%
[8]; [16]
  long-term activity (%): −126 ± 133%
  short-term activity (%): −468 ± 231%

## C=CCc1ccc(OC)c(OC)c1 [Me eugenol]
[4]; foliar, 17.5 h
  Feeding Deterrence (%): 81.15%
[5]; Lymantria dispar, read-out: Activity (%): long-term inhibition (LTI), pure (+)-1 100 ng plume following mixed plume with 100 μg compound, mean ± S.E.
  inhibition at 100 µg, 0.1 mg: 8 ± 11%
[5]; Lymantria dispar, read-out: Activity (%): short-term inhibition (STI), mixed plume (+)-1 100 ng + compound 1 μg, negative = enhancement, mean ± S.E.
  inhibition at 0.001 mg: -1 ± 13%
[5]; Lymantria dispar, read-out: Activity (%): short-term inhibition (STI), mixed plume (+)-1 100 ng + compound 10 μg, negative = enhancement, mean ± S.E.
  inhibition at 0.01 mg: 76 ± 7%
[5]; Lymantria dispar, read-out: Activity (%): short-term inhibition (STI), mixed plume (+)-1 100 ng + compound 100 μg (puff v), negative = enhancement, mean ± S.E.
  inhibition at 0.1 mg: -152 ± 30%
[6]
  trap catches in the field: enhanced the trap catches significantly
[9]
  GC-EAD activity: None
[8]
  EAG response to the pure odorant (in words): same responses than clean air

## C=CCc1ccc(OCCC)c(OC)c1 [Pr eugenol]
[4]; [10]
  Feeding Deterrence (%): 52.67%
[5]; [11]
  Activity (%): short-term inhibition (STI): 18 ± 37 (6) %
[5]; [12]
  Activity (%): short-term inhibition (STI): 39 ± 23 (6) %
[5]; [13]
  Activity (%): short-term inhibition (STI): −79 ± 25 (6) %
[5]; mean ± S.E.
  Activity (%): long-term inhibition (LTI): 7 ± 6 (6) %
[9]
  GC-EAD activity: None

Reference: patent publication US9497963B2, “Methods and compositions for control of gypsy moth, Lymantria dispar” (Simon Fraser University, priority 2008, dated 2016)
